Assay results taken from US7388003B2, “Δ15-D-Homosteroids with androgenic action” (Bayer Schering Pharma AG, priority 2003, dated 2008).

Experiments:
Androgen Receptor [1] = target: T1, Androgen Receptor (Homo sapiens, UniProt P10275); experiment: Receptor binding affinity to the androgen receptor (reference DHT=100%)
T1 sequence (P10275 1-920): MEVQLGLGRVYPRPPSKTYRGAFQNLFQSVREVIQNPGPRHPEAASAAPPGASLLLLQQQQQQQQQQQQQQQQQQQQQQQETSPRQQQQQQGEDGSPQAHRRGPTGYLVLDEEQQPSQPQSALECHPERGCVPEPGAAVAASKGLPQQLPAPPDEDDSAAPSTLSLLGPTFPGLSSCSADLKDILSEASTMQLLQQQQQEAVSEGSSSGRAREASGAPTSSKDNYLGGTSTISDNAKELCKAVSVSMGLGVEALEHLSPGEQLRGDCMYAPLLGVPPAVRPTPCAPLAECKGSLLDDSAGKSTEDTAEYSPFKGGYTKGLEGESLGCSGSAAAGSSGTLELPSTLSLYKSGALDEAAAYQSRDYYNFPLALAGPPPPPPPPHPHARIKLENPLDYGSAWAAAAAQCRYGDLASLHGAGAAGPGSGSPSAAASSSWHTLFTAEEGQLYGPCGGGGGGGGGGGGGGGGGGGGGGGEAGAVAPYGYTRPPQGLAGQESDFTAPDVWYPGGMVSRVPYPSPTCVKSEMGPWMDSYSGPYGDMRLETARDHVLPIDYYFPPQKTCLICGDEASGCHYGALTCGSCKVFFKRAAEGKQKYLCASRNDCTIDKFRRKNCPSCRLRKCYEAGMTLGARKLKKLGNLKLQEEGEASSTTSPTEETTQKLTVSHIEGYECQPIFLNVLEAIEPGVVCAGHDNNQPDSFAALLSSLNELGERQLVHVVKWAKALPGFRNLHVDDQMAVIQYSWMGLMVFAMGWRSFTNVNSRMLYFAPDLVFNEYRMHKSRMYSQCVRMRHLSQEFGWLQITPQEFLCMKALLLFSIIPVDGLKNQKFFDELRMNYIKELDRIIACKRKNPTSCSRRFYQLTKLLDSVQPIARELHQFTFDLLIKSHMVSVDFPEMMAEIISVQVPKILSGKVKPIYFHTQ

Androgen Receptor [2] = target: T1, Androgen Receptor; experiment: Relative binding affinities (RBA) to the androgen receptor compared to testosterone and methyltrienolone; conditions: relative binding affinity to the androgen receptor; R 1881 (Methyltrienolone) = 100

Structure (SMILES): CC1CC2=CC(=O)CCC2C2CCC3(C)C(O)C=CCC3C12 [17aβ-Hydroxy-7α-methyl-D-homoestra-4,16-dien-3-one]
- receptor binding affinity to the androgen receptor (Androgen Receptor [1]): 2%

Structure (SMILES): CC12CCC3C4CCC(=O)C=C4CCC3C1C=CCC2O [Example 1, 17aβ-Hydroxy-D-homoestra-4,15-dien-3-one]
- RBA % (Androgen Receptor [2]): 25%

Structure (SMILES): CC12CCC(=O)C=C1CCC1C2CCC2(C)C(O)CC=CC12 [Example 2, 17aβ-Hydroxy-D-homoandrost-4,15-dien-3-one]
- RBA % (Androgen Receptor [2]): 12%

Structure (SMILES): C[C@]1(O)CC[C@H]2[C@@H]3CCC4=CC(=O)CCC4=C3C=C[C@@]21C [R 1881 (Methyltrienolone), Methyltrienolone]
- RBA % (Androgen Receptor [2]): 100%
